In patent EP0647645A1, “Novel antitumoral and antiviral compound” (PHARMA MAR, S.A., priority 1993, dated 1995):

Experiments:
P-388 cells = experiment: antitumoral assay, P-388 cell growth inhibition (cell counting); assay type: cell-based, DBA/2 mouse; details: three days of incubation
Procedure: (§1) Pateamine was diluted in MeOH/CH₂Cl₂ 1:1 at 100 ng/ml and it has been tested at different concentrations. The solvent was added to evaporate before the cells were seeded.
(§2) Four general antitumoral assays, employing the currently accepted screening protocols have been carried out using the following cells: P-388 (lymphoid neoplasm from DBA/2 mouse) A-549 (human lung carcinoma) HT-29 (human colon carcinoma) KB (human oral epidermoid carcinoma)
P-388 cells were seeded into 16 mm wells at 1 x 10⁴ per well in 1 ml aliquots of MEM 10FCS containing the indicated concentration or drug. All determinations were carried out in duplicate. After three days of incubation cells were counted and the IC₅₀ was determined. DATA TABLE-I

A-549 cells = experiment: antitumoral assay, A-549 cell growth inhibition (cell counting); assay type: cell-based, human; details: three days of incubation
Procedure: as §1, §2
(§3) A-549 cells were seeded into 16 mm wells at 2 x 10⁴ per well. The day after the inoculum was replaced by 1 ml aliquots of MEM 10FCS containing the indicated concentration of drug. All determination were carried out in duplicate. After three days of incubation cells were counted and the IC₅₀ was determined. DATA TABLE-II

HT-29 cells = experiment: antitumoral assay, HT-29 cell growth inhibition (cell counting); assay type: cell-based, human; details: four days of incubation
Procedure: as §1, §2
as §3, with “HT-29” for “A-549”, “4” for “2”, “determinations” for “determination”, “four” for “three”, “TABLE-III” for “TABLE-II”

KB cells = experiment: antitumoral assay, KB cell growth inhibition (cell counting); assay type: cell-based, human; details: four days of incubation
Procedure: as §1, §2
as §3, with “KB” for “A-549”, “X” for “x”, “10⁴ cells” for “10⁴”, “determinations” for “determination”, “four” for “three”, “TABLE-IV” for “TABLE-II”

CV-1 cells [1] = experiment: cytotoxicity assay, CV-1 cell growth inhibition (cell counting); assay type: cell-based, monkey; details: four days of incubation
Procedure: as §1
(§4) Two types of cytotoxicity assays were conducted, one of them employing conventional screening protocols and the other using the MTT method. In both cases the cells were: CV-1 (monkey kidney fibroblast) BHK (hamster kidney fibroblast)
as §3, with “CV-1” for “A-549”, “determinations” for “determination”, “four” for “three”, “TABLE-V” for “TABLE-II”

BHK cells [2] = experiment: cytotoxicity assay, BHK cell growth inhibition (cell counting); assay type: cell-based, hamster; details: three days of incubation
Procedure: as §1, §4
as §3, with “BHK” for “A-549”, “X” for “x”, “determinations” for “determination”, “TABLE-VI” for “TABLE-II”

CV-1 cells [3] = experiment: cytotoxicity assay, MTT method, CV-1 cells; assay type: cell-based, monkey; details: three days of incubation
Procedure: as §4
(§5) CV-1 and BHK cells were seeded into 9 mm wells at 1 x 10⁴ cells per well (logarithmic phase) and at 2 x 10⁵ cells per well (stationary phase). The day after the inoculum was replaced by […] aliquots of MEM 10FCS containing different concentrations of drug. All determinations were carried out in duplicate. After three days of incubation, 50 µl of medium containing 100 µg of MTT were added. Plates were incubated for two hours, medium was removed and 100 µl of isopropanol were added. The absorbencies were determined with a microtiter reader. DATA TABLE-VII

BHK cells [4] = experiment: cytotoxicity assay, MTT method, BHK cells; assay type: cell-based, hamster; details: three days of incubation
Procedure: as §4, §5

[5] = system: HSV-1 (herpes simplex virus, type 1); experiment: antiviral assay, plaque reduction, HSV-1 in CV-1 cells; assay type: cell-based
[6] = system: VSV (vesicular stomatitis virus); assay type: cell-based
P388 cell line = experiment: P388 assay of fractions during isolation; assay type: cell-based; details: isolation fractions and free base form
Procedure: The sponge N.sp2 was extracted with methanol and a 3:1 mixture of methanol dichloromethane. An aqueous suspension of the entire 1 Kg extract of Mycale was extracted with three equivalent volumes of chloroform which was in turn back-extracted with distilled water. The organic extract (7.5 g) was loaded onto a C₁₈ flash column (200 g freshly prepared). Elution was started with 50% water/methanol, the methanol content was increased in steps to 100%, and then dichloromethane was added in gradual increments to 50%. Sixteen fractions were collected, weighed and assayed. Good total recovery of mass and activity was obtained with most of the activity confined to one fraction. […] A gradient solvent system was used (CH₂Cl₂, EtOAc, MeOH) and the fractions were monitored by TLC. Much of the fatty acids and pigments were eluted with the mixtures of CH₂Cl₂ and EtOAc, while a yellow charring (H₂SO₄ on silica) material came off in 5 - 20% MeOH in EtOAc. The fractions containing the yellow char were combined to yield a mass of 240 mg. […] This fraction was further purified using amino cartridges (500 mg). The activity was eluted with MeOH to yield 45 mg of material (IC₅₀ 0.5 ng/ml P388). Final purifications was obtained on a LH20 column using the eluting solvent system 9:1 MeOH/CH₂Cl₂ with 2% concentrated aqueous ammonia. This was selected to keep the active component in a free base form. […]

Balb/c lymphocytes = assay type: cell-based, mice
CV-1 cells [7] = experiment: cytotoxicity in antiviral assay, inhibition zone on the CV-1 cell sheet; details: CV-1/HSV-1

## pateamine
P-388 cells; 0.1ng
  % Inhibition P-388 cell growth: 11%
P-388 cells; 0.5ng
  % Inhibition P-388 cell growth: 0%
P-388 cells; 1ng
  % Inhibition P-388 cell growth: 100%
P-388 cells; 5ng
  % Inhibition P-388 cell growth: 100%
P-388 cells; 10ng
  % Inhibition P-388 cell growth: 100%
P-388 cells; P-388 cell growth
  IC₅₀ ng/ml approx.: ~0.3 ng/mL
A-549 cells; 0.1ng
  % Inhibition A-549 cell growth: 0%
A-549 cells; 0.5ng
  % Inhibition A-549 cell growth: 0%
A-549 cells; 1ng
  % Inhibition A-549 cell growth: 71%
A-549 cells; 5ng
  % Inhibition A-549 cell growth: 100%
A-549 cells; 10ng
  % Inhibition A-549 cell growth: 100%
A-549 cells; A-549 cell growth
  IC₅₀ ng/ml approx.: ~0.7 ng/mL
HT-29 cells; 0.1ng
  % Inhibition HT-29 cell growth: 0%
HT-29 cells; 0.5ng
  % Inhibition HT-29 cell growth: 0%
HT-29 cells; 1ng
  % Inhibition HT-29 cell growth: 35%
HT-29 cells; 5ng
  % Inhibition HT-29 cell growth: 85%
HT-29 cells; 10ng
  % Inhibition HT-29 cell growth: 91%
HT-29 cells; HT-29 cell growth
  IC₅₀ ng/ml approx.: ~2 ng/mL
KB cells; 0.1ng
  % Inhibition KB cell growth: 70%
KB cells; 0.5ng
  % Inhibition KB cell growth: 67%
KB cells; 1ng
  % Inhibition KB cell growth: 96%
KB cells; 5ng
  % Inhibition KB cell growth: 100%
KB cells; 10ng
  % Inhibition KB cell growth: 100%
KB cells; KB cell growth
  IC₅₀ ng/ml approx.: <0.05 ng/mL
CV-1 cells [1]; 0.1ng
  % Inhibition CV-1 cell growth: 0%
CV-1 cells [1]; 0.5ng
  % Inhibition CV-1 cell growth: 0%
CV-1 cells [1]; 1ng
  % Inhibition CV-1 cell growth: 31%
CV-1 cells [1]; 5ng
  % Inhibition CV-1 cell growth: 84%
CV-1 cells [1]; 10ng
  % Inhibition CV-1 cell growth: 100%
CV-1 cells [1]; CV-1 cell growth
  IC₅₀ ng/ml approx.: ~2.4 ng/mL
BHK cells [2]; 0.1ng
  % Inhibition BHK cell growth: 0%
BHK cells [2]; 0.5ng
  % Inhibition BHK cell growth: 0%
BHK cells [2]; 1ng
  % Inhibition BHK cell growth: 0%
BHK cells [2]; 5ng
  % Inhibition BHK cell growth: 98%
BHK cells [2]; 10ng
  % Inhibition BHK cell growth: 100%
BHK cells [2]; BHK cell growth
  IC₅₀ ng/ml approx.: ~3 ng/mL
CV-1 cells [3]; log. phase
  IC₅₀: 2.4 ng/mL
CV-1 cells [3]; stat. phase
  IC₅₀: >100 ng/mL
BHK cells [4]; log. phase
  IC₅₀: 3.7 ng/mL
BHK cells [4]; stat. phase
  IC₅₀: >100 ng/mL
[5]; 20ng
  % Inhibition CV-1/HSV-1 (plaque reduction sign): + (The sign (+), indicates that plaques are reduced by approx. 50-60%.)
[5]; 40ng
  % Inhibition CV-1/HSV-1 (plaque reduction sign): ++ (The sign (+ +), indicates that plaques are reduced by approx. 70-90%.)
[5]; 100ng
  % Inhibition CV-1/HSV-1 (plaque reduction sign): +++ (The sign (+ + +), indicates that plaques are reduced 100%.)
[5]; 200ng
  % Inhibition CV-1/HSV-1 (plaque reduction sign): +++ (The sign (+ + +), indicates that plaques are reduced 100%.)
[5]; 400ng
  % Inhibition CV-1/HSV-1 (plaque reduction sign): +++ (The sign (+ + +), indicates that plaques are reduced 100%.)
[5]; CV-1/HSV-1, ( + ) is the approximately IC₅₀
  IC₅₀ ng/disk: 20 ng/disk
[6]
  IC₅₀ ng/disk: >20 ng/disk
P388 cell line
  IC₅₀: 0.15 ng/mL
Balb/c lymphocytes
  IC₅₀ for the LcV: 4.1 µg/mL
CV-1 cells [7]; 10ng
  cytotoxicity for the cells, inhibition zone on the cell sheet: 6
CV-1 cells [7]; 20ng
  cytotoxicity for the cells, inhibition zone on the cell sheet: 10
CV-1 cells [7]; 40ng
  cytotoxicity for the cells, inhibition zone on the cell sheet: 12
CV-1 cells [7]; 100ng
  cytotoxicity for the cells, inhibition zone on the cell sheet: 14
CV-1 cells [7]; 200ng
  cytotoxicity for the cells, inhibition zone on the cell sheet: 16
CV-1 cells [7]; 400ng
  cytotoxicity for the cells, inhibition zone on the cell sheet: 16
